Structures are written as SMILES.

In turn, `COc1cc2ncnc(NC3=CC(=O)C(Oc4ccccc4)=CC3=O)c2cc1OC` had a melting point of 228 to 234 °C.
For `CC1(C)CC(=O)C(SCC2CCCCC2)=C(O)C1` the value was 67.5 to 69.5 °C; for `CCN1CCCc2cc(C=C3SC(=O)NC3=O)ccc21`, 238 to 241 °C.
`COc1cc2c(c(C(C(N)=O)c3ccccc3)c1)CC(C)O2` (centres undefined): the melting point amounted to 148 °C.
Regarding `CCCCCCCCC(SCCCCCC)C(=O)Nc1c(SC)cc(NC(C)=O)c2ncc(C)cc12` (centres undefined), the melting point lay in the range of 128 to 131 °C.
Under `Oc1cc(-n2cc3c(n2)CCCC3)c(Cl)cc1Cl` stands 84 to 86 °C; under `Cc1ccccc1C=CC=C1SC(=S)N(CC(=O)O)C1=O`, 210 to 217 °C; under `Cc1cccc(N=C2NCCN2C(=O)Nc2ccc(F)cc2)c1`, 178 °C.
For `CCCCCCCCC(SCCCCCC)C(=O)Nc1c(SC)cc(C)nc1SC` (centres undefined) the value was 75 to 76.5 °C.
Under `O=C(O)COc1cccc2c1CC(S(=O)(=O)Cc1ccccc1)c1sc(-c3cccc(F)c3)nc1-2` (centres undefined) stands 215 to 217 °C; under `Cc1cc(C(=O)O)cc(C)c1OCCNC(=O)C1Cc2ccccc2N1S(=O)(=O)c1ccc(-c2cccc(C(F)(F)F)c2)cc1` (centres undefined), 120 to 126 °C; under `O=C1CCCc2c1n(CCBr)c1ccc(Cl)cc21`, 121 °C.
In turn, `CCOc1ccc(-c2cc(C3CCCCC3)nc(C3CCCCC3)c2)cc1` had a melting point of 106 °C.
Under `O=C(N[C@H]1CC[C@H](CCN2CCC(c3cccc4c3CCO4)CC2)CC1)C(F)(F)F` stands 173 °C; under `CCOC(=O)N1CCN(c2ccncc2N)CC1`, 141 to 142 °C; under `CC(CS(=O)(=O)C(C)c1ccccc1)C(=O)O` (centres undefined), 91 to 93 °C.
For the compound `COC(=O)C#CC(=O)c1cccc(C)c1`, the melting point was in the range of 36 to 38 °C.
The compound `CCCCC(CC)C(=O)NCCCCCCCCCCCOCC(O)CNCCO` (centres undefined) showed a melting point of 76.1 to 77.3 °C.
For `CCOC(=O)c1cc2cc(OC(C)=O)ccc2n1C` the value was 87 to 89 °C.
For `CCOC(OCC)N1C(=O)C2(CCCCC2)c2cc(-c3cc(F)cc(C#N)c3)ccc21` the value was 146 °C; for `CCCCCCCCC(=N)NC(=S)Nc1ccc(Cl)cc1`, 102 to 103 °C; for `CC(=O)Nc1ccc2c(c1)C(=O)NC2=O`, more than 250 °C.
For the compound `CNC(=O)c1cccc(F)c1Nc1nc(Nc2ccc3c(c2)N(C(C)=O)CC(=O)NC3)ncc1Cl`, the melting point was in the range of 179 to 185 °C.
`Cc1oc(-c2ccccc2)nc1CCc1noc(CCl)n1` gave a melting point of 71 to 72 °C.
For `CCOC(=O)CN(c1ccc(N)cc1)S(=O)(=O)c1cccc2ccccc12` the value was 98 to 103 °C; for `CC(C)N(Cc1ccc(Cl)c(Cl)c1)S(=O)(=O)c1ccc(Cl)s1`, 66 to 67 °C; for `CC(C)(C)[Si](C)(C)Oc1ccc(NC(=O)CBr)cc1`, 112 to 113 °C.
`COc1ccc(NS(=O)(=O)c2cc3cc(Cl)ccc3oc2=O)cc1` displayed a melting point of 175 to 177 °C.
Compound `COc1ccc2c(c1)NCCO2` showed a melting point of 59 to 61 °C.
In the case of `CC(C)(C)c1ccc(C(=O)Nc2cn3nc(NCCc4ccncc4)ccc3n2)cc1`, the melting point was determined as 279 °C.
`CCOc1ccccc1CNc1c(C#N)ccnc1C(N)=O`: the melting point was 150 to 152 °C.
Regarding `O=C(O)c1csc(Br)n1`, the melting point lay in the range of 227 to 229 °C.
For `CCCOc1ccccc1-c1nc(O)cc(Cl)n1` the value was 116 °C.
In the case of `O=c1[nH]c2cc(Cl)cc(Cl)c2c(-c2cc(Cl)ccc2O)c1O`, the melting point is 297 to 299 °C.
Under `COC(=O)N/C(=C\C[PH](=O)CO)C(=O)O` (centres undefined) stands 254 to 256 °C.
Consider `CCOCc1nc2c(N)nc3ccccc3c2n1OC(C)C`, for which the melting point lay in the range of 179 to 181 °C.
For `Cc1ccccc1-c1c(NC(=O)Nc2ccc(F)cc2F)c(=O)oc2cc3c(cc12)CCC3` the value was 223 to 224 °C; for `O=C(N[C@H]1CC[C@H](CCN2CCC(c3cccc4c3CCO4)CC2)CC1)c1ccc(N2CCOCC2)cc1`, 247 °C.
Compound `OC1CSC(Oc2cncc(Cl)c2)C(O)C1O` (centres undefined) yielded a melting point of 184 °C.
Under `NCc1cccc2nnsc12` stands 136 to 139 °C; under `C=CC[C@H](C(N)=O)[C@@H](CC(C)C)C(=O)NC1N=C(c2cccc(OC)c2)c2ccccc2N(C)C1=O` (some centres undefined), 225 to 230 °C.
In the case of `CC1=CC(=O)C(C)(N=Nc2ccc3ccccc3c2)O1` (centres undefined), the melting point fell in the range of 76 to 77 °C.
In turn, `FC(F)(F)c1cccc(CO[C@H]2CO[C@@H](c3ccccc3)OC2)c1` had a melting point of 115 to 116 °C.
Under `COC(=O)c1ccc(NC(=O)c2cc(C(C)C)c(C(C)C)o2)s1` stands 175 to 177 °C; under `COCCCS(=O)(=O)NC(=O)/C=C/c1cc(OCC2CC2)nn1Cc1ccc(C(F)(F)F)cc1Cl`, 137 to 138 °C; under `N#Cc1ccc(C(F)(F)F)cc1Sc1ccccc1N`, 102 to 104 °C.
Under `CCOC(=O)CC[C@H](NC(=O)c1ccc(CCCCc2c(N)nc(N)nc2O)cc1)C(=O)OCC` stands 75 to 76 °C; under `CCCCOc1nc(N)nc2[nH]cnc12`, 165 °C.
Compound `CC(C)(C)NC(=O)C1CCC(c2ccccc2)N1C(=O)CNC(=O)OC(C)(C)C` (centres undefined) had a melting point of 117 °C.
On to `O=C1C2=C(NC3(C=N2)OCCO3)c2ccccc21`, for which the melting point was 296 to 298 °C.
For `Cn1ncc(C(=O)N2CCOCC2)c1C(=O)Nc1ccc2nc(-c3cccnc3)nn2c1`, the melting point came to 229 °C.
Under `CCOC(=O)c1cn(CC)c2cc(-c3cc(C)no3)ccc2c1=O` stands 180 to 185 °C; under `CC(C)(C)OC(=O)N1CCC(=O)N1c1ccccc1`, 150 °C.
For `Nc1cn(-c2cccnc2)nc1Cl`, the melting point was 70 to 72 °C.
For `COc1ccc(N2CCN(C(=S)C3(C)CCc4c(C)c(O)c(C)c(C)c4O3)CC2)cc1` (centres undefined), the melting point fell in the range of 120 to 121 °C.
Under `O=S(=O)(Oc1ccc(OCc2ccc3ccccc3n2)cc1C1(c2ccccc2)CC2CCC1C2)C(F)(F)F` (centres undefined) stands 131 to 132 °C; under `CN1C(=O)C(C)(C)C(=O)Nc2cc(C=O)ccc21`, 208 to 210 °C.
Under `O=c1[nH]c2cc(Cl)ccc2c(O)c1Sc1ccccc1Cl` stands more than 300 °C; under `c1ccc(C2NCCOC2c2ccccc2)cc1` (centres undefined), 70 to 72 °C.
For `O=C(NC1CCc2n[nH]cc2C1)[C@@H]1CCCN1C(=O)[C@@H](CC1CCCCC1)NS(=O)(=O)Cc1ccccc1` (some centres undefined), the melting point was in the range of 106 to 109 °C.
Under `COc1cc(NC2CCN(Cc3ccccc3)CC2)ccc1C(N)=O` stands 155 to 157 °C; under `CC1(C(O)=Nc2cc(Cl)cc(Cl)c2)CC(F)C1(C)C(=O)O` (centres undefined), 122 to 123 °C; under `COC(=O)C(=O)NC(=O)CC(F)=C(F)F`, 33 to 34 °C.
Under `CCCn1c(=O)c2[nH]c([C@H](C)c3ccccc3)nc2n(CCC)c1=O` stands 136 to 137 °C; under `COc1cc(SC)sc1C1NC(C)(C)CO1` (centres undefined), 56 to 58 °C; under `CC(C)(C)OC(=O)N1CCOC(C2=C(C#N)C(c3cccc(C#N)c3Br)c3c[nH]nc3N2)C1` (centres undefined), 219 °C.
Under `CCN(CC)C(=O)[C@H]1CN2CC[C@H]1[C@H](NCc1cc(OC)ccc1OC)[C@@H]2C(c1ccccc1)c1ccccc1` (relative stereo) stands 153 to 154 °C; under `O=C(O)[C@@H]1CSCN1C(=O)CCc1ccccc1`, 93 to 95 °C; under `CC(C)(C)OC(=O)NCCNC(=O)c1ncsc1-c1cccc(OCc2cccc(Cl)c2)c1`, 116 to 117 °C.
Regarding `CS(=O)(=O)NCCCn1c(CCCOc2ccccc2)nc2c(N)nc3ccccc3c21`, the melting point was 176 to 178 °C.
Under `Clc1ccccc1-c1nc2occn2c1-c1ccnc(N[C@H]2CN3CCC2CC3)n1` stands 132 to 134 °C; under `O=C(NO)c1ccc(CNC(=O)c2[nH]c(-c3ccccc3)cc2-c2ccc(F)cc2)cc1`, 215 to 216 °C.
As for `CCCCC(=NNC=O)c1ccncc1`, the melting point was 143 °C.
For the compound `O=C(O)c1cn(-c2ccc(F)cc2)c2c(F)c(N3Cc4ccc(Br)cc4C3)c(F)cc2c1=O`, the melting point was more than 300 °C.
Under `COC(=O)c1cccc(-c2cn(C)cc(-n3cccn3)c2=O)c1` stands 144 °C; under `COCCN1C(=S)N(c2ccc(C#N)c(C(F)(F)F)c2)C(=O)C1(C)C`, 98 to 99 °C; under `Cc1ccc(C(=O)c2cc([N+](=O)[O-])ccc2Cl)cc1`, 121 °C.
For `CCNC(=NC#N)NCc1cccnc1`, the melting point was 177 to 179 °C.
For `CC(=O)OCc1c(C(=O)C(=O)O)c2cc(-c3cccc(C)c3)ccc2n1Cc1ccc(C(C)(C)C)cc1` the value was 91 to 92 °C; for `O=C(Nc1ccc(C(F)(F)F)cc1)NC1CCN(C(=O)Cc2c[nH]cn2)CC1`, 121 to 124 °C; for `N#Cc1c[nH]cc1-c1ccc(Cl)cc1C(=O)c1ccccc1`, 175 to 177 °C.
In turn, `O=C1CC(c2cccc(-n3ccnc3)c2)=Nc2cc(N3CCC(O)CC3)c(-c3ccc(F)cc3)cc2N1` yielded a melting point of 238 to 240 °C.
Under `Brc1cccc(C2Cc3cnc(Nc4ccc(CCNCCN5CCCC5)cc4)nc3-c3ccccc32)c1` (centres undefined) stands 83 to 85 °C.
Under `Cc1ccc(S(=O)(=O)C(CC(=O)C(C)(C)C)c2ccc(Cl)cc2)cc1` (centres undefined) stands 170 to 171 °C; under `Nc1nc(N)c2cc(S(=O)(=O)c3ccc(Cl)c(Cl)c3)ccc2n1`, 286 to 289 °C; under `CC(CCC(N)=O)C1CC=C2C3=C(CCC21C)C1(C)CCC(O)C(C)(C)C1CC3` (centres undefined), 233 to 235 °C.
As to `O=C(CN1CCCNC1=O)N1CCC(C2c3ncc(Br)cc3CCc3cc(Cl)cc(Br)c32)CC1` (single isomer, unassigned; (+)), the melting point was in the range of 155 to 156 °C.
Turning to `CC1(c2ccc(F)cc2)NOCC1CN(O)C(N)=O` (centres undefined), the melting point lay within 135 to 137 °C.
Under `CC(=O)OC1CSC(Oc2cncc(-c3ccc(F)nc3)c2)C(OC(C)=O)C1OC(C)=O` (centres undefined) stands 167 to 169 °C.

Usually melting point stands for the temperature, or range, at which the solid turns liquid.

The values are drawn from a melting point compilation (Tetko et al.; mined from patent text by program, amines drawn as free bases though some values may be those of a salt).
